Data set [1] in a line: Measurement of critical micelle concentration (surface tension, platinum suspension plate method). In kind it is physicochemical. Particulars: critical micelle concentration from surface tension measurement. The method, then:
A highly functional surface tensiometer (DY-500 (available from Kyowa Interface Science Co., Ltd.) was used to perform surface tension measurement by a platinum suspension plate method, and critical micelle concentrations (CMCs) of the STL C14, the STL C16, the STL C18, sodium lauryl sulfate, sodium deoxycholate, and sodium caprylate were calculated in accordance with a common method. The results are described in Table 4.

Data set [2] can be described thus: Foam property evaluation (dynamic foam analyzer). The class given is physicochemical. Particulars: 0.5% aqueous solution, pH 8.0, water hardness 20°dH, 25°C; for Creaminess of foam Bubble area after 20 seconds: 20 seconds after stirring was stopped; for Creaminess of foam Bubble area after 600 seconds: 600 seconds after stirring was stopped; for Foam retention evaluation Foam change rate: smaller = better foam retention. The protocol:
Thereafter, an average bubble area of foams was determined based on the images, and creaminess (foamability) of the foams was evaluated according to the following criteria. Note that the creaminess of the foams is characterized by having a small final bubble diameter (measured as average bubble area). The foams generated from the aqueous solutions containing the STL C14, the STL C16, or the STL C18 had small bubble areas, and thus it was considered that creamy foams could be formed. • ⊚ (good): The bubble area was 20000 µm^2 or less. • ∘ (passed): The bubble area was 20001 µm^2 or more and 30000 µm^2 or less. • Δ (slightly poor): The bubble area was 30001 µm^2 or more and 40000 µm^2 or less. • × (poor): The bubble area was 40001 µm^2 or more. A foam change rate was calculated using the following equation. It can be determined that the smaller the foam change rate is, the better the foam retention is, in other words, the better the foaming durability is. […]

For data set [3], the system named is L929 mouse fibroblasts. Particulars: values of L. Vian et al., Toxicol in vitro, 9(2), 185-190, 1995; cited from earlier work.
The test system of data set [4] is Zein powder. Nature of the data set: Protein denaturation test (dissolution of Zein powder). Particulars: 0.5% aqueous solution, pH 8.0; 0.03 g Zein powder in 10 mL; room temperature, 2 hours; index of skin irritation.
Method: 0.03 g of Zein powder (FUJIFILM Wako Pure Chemical Corporation) was added to the aqueous solutions of the STL. After stirring at room temperature and 1200 rpm for 2 hours, the Zein powder-added solutions were transferred to centrifuge tubes, respectively, and centrifuged at 6200 rpm for 10 seconds to precipitate and remove undissolved zein powder. The protein concentrations in the solutions were measured using a microvolume spectrophotometer NanoDrop (NanoDrop Technologies).
The protein denaturation test was performed in the same manner using sodium lauryl sulfate, sodium deoxycholate, and sodium caprylate.

Regarding `CCCCCCCC(=O)[O-].[Na+]` [Sodium caprylate, sodium caprylate], in data set [1], the “Surface activating ability evaluation CMC” value is 300 mM. In addition, in data set [2], the “Creaminess of foam Bubble area after 20 seconds” value (shortened to “Creaminess … after 20 seconds”) was “○”; the “Creaminess of foam Bubble area after 600 seconds” value (shortened to “Creaminess … after 600 seconds”) was “Δ (Δ (slightly poor): The bubble area was 30001 µm^2 or more and 40000 µm^2 or less.)”; the “Foam retention evaluation Foam change rate” value came to 1.09%. Also, in data set [3], the “Cytotoxicity evaluation IC50” value is 887 ppm.
Turning to `CCCCCCCCCCCCOS(=O)(=O)[O-].[Na+]` [Sodium lauryl sulfate, sodium lauryl sulfate], the “Surface activating ability evaluation CMC” value in data set [1] came to 8 mM. In addition, in data set [2], the “Creaminess … after 20 seconds” value was “⊚ (⊚ (good): The bubble area was 20000 µm^2 or less.)”; the “Creaminess … after 600 seconds” value was “Δ (Δ (slightly poor): The bubble area was 30001 µm^2 or more and 40000 µm^2 or less.)”; the “Foam retention evaluation Foam change rate” value was determined as 2.81%. Besides, in data set [3], the “Cytotoxicity evaluation IC50” value is reported as 86 ppm.
For sodium deoxycholate, the “Surface activating ability evaluation CMC” value in data set [1] was 6 mM. In data set [4], the “Protein denaturation ability evaluation Protein dissolution concentration” value amounted to 430 µg/mL. In data set [2], the “Creaminess … after 20 seconds” value was “⊚ (⊚ (good): The bubble area was 20000 µm^2 or less.)”, the “Creaminess … after 600 seconds” value is listed as “× (× (poor): The bubble area was 40001 µm^2 or more.)” and the “Foam retention evaluation Foam change rate” value came to 2.62%. Besides, the “Cytotoxicity evaluation IC50” value in data set [3] is reported as 90 ppm.

Values taken from patent EP4631490A1, “ACTIVATOR AND SKIN CONDITION IMPROVING AGENT” (Nippon Shokubai Co., Ltd., priority 2022, dated 2024).
